Experiments:
[1] = biological target: T1, cyclooxygenase (Ovis aries, UniProt P05979); assay: Cyclooxygenase Assay (polarigraphic oxygen consumption, lipid-depleted sheep seminal vesicle microsomes); format: biochemical; conditions: 30° C., 2 min incubation, ammonium arachidonate substrate
T1 construct: Lipid-depleted Sheep Seminal Vesicle Microsome Suspension; from tissue; host or cells: sheep seminal vesicle microsomes (lipid-depleted powder, detergent solubilized)
T1 sequence (P05979 25-600): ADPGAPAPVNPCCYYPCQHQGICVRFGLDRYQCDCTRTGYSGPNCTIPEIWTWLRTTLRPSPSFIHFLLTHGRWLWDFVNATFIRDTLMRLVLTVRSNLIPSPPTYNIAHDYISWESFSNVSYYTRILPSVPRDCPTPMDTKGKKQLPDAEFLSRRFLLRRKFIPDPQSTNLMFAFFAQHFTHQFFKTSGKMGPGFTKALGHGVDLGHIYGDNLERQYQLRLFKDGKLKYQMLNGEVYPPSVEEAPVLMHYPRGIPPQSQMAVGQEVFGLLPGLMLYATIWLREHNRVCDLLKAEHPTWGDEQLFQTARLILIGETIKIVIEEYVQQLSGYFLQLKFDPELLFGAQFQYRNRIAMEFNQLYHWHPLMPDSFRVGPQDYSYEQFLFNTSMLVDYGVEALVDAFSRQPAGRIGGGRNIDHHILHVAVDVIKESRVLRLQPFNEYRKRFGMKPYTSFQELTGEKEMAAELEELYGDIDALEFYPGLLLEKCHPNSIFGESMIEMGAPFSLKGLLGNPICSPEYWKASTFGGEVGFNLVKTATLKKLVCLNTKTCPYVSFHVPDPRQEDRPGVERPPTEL
Procedure: Cyclooxygenase activity was determined polarigraphically with detergent solubilized, lipid-depleted sheep seminal vesical microsomes. Addition of test articles that inhibit cyclooxygenase, including reference standards, cause a decrease in the rate of oxygen consumption in the reactions. Cyclooxygenase activity is determined using the following procedures:
I. Preparation of Test Materials
1. Lipid-Depleted Sheep Seminal Vesicle Microsomal Powder. This preparation follows the procedure of G. Graff et al. J. Biol. Chem. 253, 7662 (1978).
2. Ammonium Arachidonate Solution. A 250 μL aliquot of 20.0 mM arachidonic acid in absolute ethanol and a 50-μL aliquot of concentrated ammonium hydroxide is placed into a test tube. The solvent and excess ammonium hydroxide is evaporated under a stream of nitrogen at room temperature. The ammonium arachidonate residue is dissolved in 500 μL of 100 mM 2-amino-2-hydroxymethyl-1,3-propanediol hydrochloride (Tris HCl) buffer (pH 8.0) by using a vortex mixer. The final concentration of ammonium arachidonate (working solution) is 10.0 mM.
3. Enzyme Buffer 100 mM Tris HCl (pH 8.0) containing 2.0 mM phenol, 5.0 mM ethylenediaminetetraacetic acid (EDTA), 5.0 mM diethyldithiocarbamic acid and 1.0% Tween 20.
4. Reaction Buffer 100 mM Tris HCl (pH 8.0) containing 2.0 μM hematin and 1.0 mM phenol (prepared daily).
5. Detergent Solubilized Lipid-depleted Sheep Seminal Vesicle Microsome Suspension. Ten mg (solid) of lipid-depleted microsomal powder from sheep seminal vesicles is suspended in 1.0 mL of enzyme buffer and kept at 4° C. until used.
6. Solutions of Test (Formula I compound) or Reference Articles. Test and reference articles are dissolved in the reaction buffer prepared in 4) or a solvent that will not interfere with cyclooxygenase activity, e.g., dimethylsulfoxide, ethanol or acetone.
II. Cyclooxygenase Inhibition Assay
Three mL of the reaction buffer and 20 μL of the microsomal enzyme suspension are placed in a Yellow Springs Instrument (YSI) oxygen chamber where the temperature is maintained at 30° C. by means of a temperature controlled circulating water bath. Aliquots of the solutions containing ≤[…] of Formula I compound (test article) or reference article [see 6) above] are added to the YSI chamber and incubated for 2 minutes. The reaction is initiated by addition of 30 μL of the 10 mM ammonium arachidonate solution and cyclooxygenase activity determined polarigraphically using an oxygen electrode by measuring the rate of oxygen consumption [Cook et al., Anal. Biochem 96 341-51 (1979) and Cook and Lands, Can. J. Biochem. 53, 1220-1231 (1975)].
Test, reference, and control articles were evaluated in triplicate. Cyclooxygenase activity was determined from the slope (mv/unit time) of the recorder tracing with 1 mV being proportional to a 2.34 μM change in oxygen concentration.
The IC50 (concentration of test or reference article that inhibits the reaction by 50%) was calculated from cumulative plots relating the extent of inhibition of cyclooxygenase activity in control group assays to increasing concentrations of test article. Where no inhibition exists, the IC50 is expressed as greater than the highest concentration of the drug tested.

[2] = test system: guinea pig skin; assay: UV-Erythema in Guinea Pigs; format: in vivo; parameters: key: +: active; -: inactive; conditions: topical, 50 μL of cream with 1.0 mg test article per 1 g, immediately after UV exposure; active = composite score significantly lower than control, Dunnett's t-test p≤0.05
Procedure: I. Preparation of Formulation (cream)
All drugs tested were prepared by thoroughly incorporating 1.0 mg of the test article into 1 g of a pH 7.0 cream vehicle of the following composition.
methyl glucose sesquistearate 1.6%
methyl gluceth-20 sesquistearate 2.4%
emulsifying wax, N.F. 5.0%
mineral oil (heavy), U.S.P. 1.0%
white petrolatum, U.S.P. 5.0%
stearic acid, U.S.P. 2.5%
sodium benzoate, N.F. 0.1%
magnesium aluminum silicate 1.5%
deionized water, pH 7.0 64.8%
The preparations were packed into 1-cc plastic syringes.
II. Pharmacological Assay
The backs of female, English short hair guinea pigs (250-500 g) were shaved and depilated with Nair®. Control and treated groups each consisted of 5 animals, and selection of the animals and the control and treatment groups was achieved by random procedures. A rubber sheet with three one-half inch holes spaced one-half inch apart was draped over backs of the guinea pigs. The guinea pigs were then exposed to ultraviolet (UV) light (Hanovia Model 10, ~650-800 μW/cm^2) for 15 seconds by holding the animals against the light source. Fifty μL of the test drug or reference drug (indomethacin or bromfenac) preparation were immediately rubbed onto the skin, either on the area exposed to UV light or to an area adjacent to the UV light exposed skin. The degree of erythema for each exposed area was scored at various times following exposure according to the following scale:
1=slight redness with faint outline
2=moderate to marked redness with distinct outline
The score was totaled for each guinea pig (maximum score is 6). The Dunnett's t-test was used to determine significant (p≤0.05) differences from the control (placebo treated) group.

[3] = biological target: T2, 5-lipoxygenase (Homo sapiens, UniProt P09917); assay: 5-Lipoxygenase Assay (production of 5-HETE from arachidonic acid in polymorphonuclear leukocytes stimulated by A23187); format: cell-based; conditions: inhibition of production of 5-HETE, human PMN cells, calcium ionophore A23187, 37° C.
T2 construct: Polymorphonuclear leukocytes were obtained from whole human blood; endogenous in cells; host or cells: human polymorphonuclear leukocytes from whole blood, stimulated with A23187
T2 sequence (P09917 1-674): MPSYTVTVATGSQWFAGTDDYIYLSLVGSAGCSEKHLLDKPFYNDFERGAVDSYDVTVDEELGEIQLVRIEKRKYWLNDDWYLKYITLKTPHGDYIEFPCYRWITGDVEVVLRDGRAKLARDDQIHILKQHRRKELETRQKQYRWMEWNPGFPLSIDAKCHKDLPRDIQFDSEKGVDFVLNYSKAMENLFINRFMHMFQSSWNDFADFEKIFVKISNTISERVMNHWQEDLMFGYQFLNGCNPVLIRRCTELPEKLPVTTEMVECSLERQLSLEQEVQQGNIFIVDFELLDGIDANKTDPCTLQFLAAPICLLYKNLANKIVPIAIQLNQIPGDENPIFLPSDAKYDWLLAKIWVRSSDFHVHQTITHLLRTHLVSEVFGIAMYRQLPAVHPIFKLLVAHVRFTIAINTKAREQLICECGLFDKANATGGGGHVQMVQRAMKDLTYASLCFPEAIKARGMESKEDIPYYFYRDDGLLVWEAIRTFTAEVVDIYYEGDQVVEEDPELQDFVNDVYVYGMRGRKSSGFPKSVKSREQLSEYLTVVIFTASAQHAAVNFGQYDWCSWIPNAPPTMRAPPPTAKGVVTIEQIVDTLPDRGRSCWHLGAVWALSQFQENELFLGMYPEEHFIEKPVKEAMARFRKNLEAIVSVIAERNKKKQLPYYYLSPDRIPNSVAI
Procedure: The production of 5-HETE from arachidonic acid in human polymorphonuclear leukocytes stimulated by the calcium ionophore A23187 (Calbiochemicals) was measured by reverse phase high pressure liquid chromatography. This procedure is a modification of the procedure of Sun and McGuire, PROSTAGLANDINS, 26, 211-221 (1983). Addition of substances to the test system that inhibit 5-lipoxygenases cause a decrease in the production of 5-HETE and is thus determined in comparison to reference and control articles also added to the reaction system.
Polymorphonuclear leukocytes were obtained from whole human blood by the procedure of Skoog and Beck, BLOOD, 11, 436-454 (1956). […] The tube is incubated for an additional 10 min at 37° C. and the incubations terminated by addition of 1.5 mL of acetone and cooling to 0° C. 13-Hydroxyoctadecatrienoic acid (13-HODT) (5 μL of 0.2 mM methanolic solution) is added for an internal reference standard. The tube is stored at -20° C. under argon for 4-18 hr. Centrifugation at 1000×g for 10 min causes protein precipitate to form a pellet. The acetone layer is evaporated under a stream of nitrogen and the resultant lipid residue containing the arachidonic acid metabolites and 13-HODT is dissolved in 0.5 mL of methanol and stored at -20° C. until analyzed by high-pressure liquid chromatography (HPLC).
For analysis, a 150-μL aliquot of the methanol solution is evaporated under a stream of argon. The residue is reconstituted with 100 μL of a 1:1 methanol-water mixture and sonified for 15-20 seconds and the mixture analyzed by HPLC (C18 reversed phase Econophere column, methanol:water:acetic acid 79:25:0.2 v/v/v used for elution). Test, reference, and control articles are evaluated in duplicate. The inhibition is reported as that concentration which will inhibit by 50% the production of 5-HETE.

SMILES | IC50 [1] | U.V. erythema (+ = active, - = inactive) [2] | IC50 [3]
CCCC[C@@H]1S[C@H](c2cccc(Oc3ccccc3)c2)N(CCCCc2ccc(C(=O)OCC)cc2)C1=O (relative stereo) [Example 6, 4-[4-[5-Butyl-4-oxo-2-(3-phenoxyphenyl)-3-thiazolidinyl]butyl]benzoic acid ethyl ester] | 0.05 µM |  | 
CCCCC1SC(c2cccc(Oc3ccccc3)c2)N(CCc2ccc(O)cc2)C1=O (stereo not shown) [Example 59, 5-Butyl-3-[2-(4-hydroxyphenyl)ethyl]-2-(3-phenoxyphenyl)-4-thiazolidinone] |  | + | 
CCCCC1SC(c2cccc(Oc3ccccc3)c2)N(CCc2ccccn2)C1=O (stereo not shown) [Example 18, 5-Butyl-2-(3-phenoxyphenyl)-3-[2-(2-pyridinyl)ethyl]-4-thiazolidinone] | 0.12 µM |  | 7.8 µM
CCCC[C@@H]1S[C@@H](c2cccc(Oc3ccccc3)c2)N(CCCCc2ccc(C(=O)OCC)cc2)C1=O (relative stereo) [Example 5, 4-[4-[5-Butyl-4-oxo-2-(3-phenoxyphenyl)-3-thiazolidinyl]butyl]benzoic acid ethyl ester] | 0.07 µM |  | 
CCCCC1SC(c2cccc(Oc3ccccc3)c2)N(CCCCCCC(=O)OCC)C1=O (stereo not shown) [Example 55, 5-Butyl-4-oxo-2-(3-phenoxyphenyl)-3-thiazolidineheptanoic acid ethyl ester] | 1 µM |  | ~10 µM
CCCC[C@@H]1S[C@H](c2cccc(Oc3ccccc3)c2)N(c2ccc(O)cc2)C1=O (relative stereo) [Example 3, 5-Butyl-3-(4-hydroxyphenyl)-2-(3-phenoxyphenyl)-4-thiazolidinone] | 8 µM |  | 5 µM
CCCC[C@@H]1S[C@@H](c2cccc(C(=O)c3ccccc3)c2)N(c2ccc(O)cc2)C1=O (relative stereo) [Example 22, 2-(3-Benzoylphenyl)-5-butyl-3-(4-hydroxyphenyl)-4-thiazolidinone] | 2.2 µM |  | 6.4 µM
CCCCC1SC(c2cccc(Oc3ccccc3)c2)N(CCCOc2ccc(C(=O)O)cc2)C1=O (stereo not shown) [Example 30, 4-[3-[5-Butyl-4-oxo-2-(3-phenoxyphenyl)-3-thiazolidinyl]propoxy]benzoic acid] | 1.6 µM |  | 3.5 µM

— patent US5061720A, “Substituted-4-thiazolidinone derivatives” (A. H. Robins Company, Inc., priority 1989, dated 1991)
